Data reported in patent publication US6737383B1, “Herbicidal oxadiazolidines” (priority 1999, dated 2004).

Tests used:
Alexandergrass = test: Test D Alexandergrass; assay type: in vivo, Brachiaria plantaginea; conditions: Preemergence, 0 to 100 scale
Summary of the method: (§1)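 Herbicide screen in the greenhouse. A non-phytotoxic solvent mixture with surfactant carried the test chemical; in pre-emergence tests it went onto the soil of pots seeded no more than a day earlier. Injury was scored by eye 14 to 21 days after application, 0 to 100.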

bermuda-grass = test: Test D bermudagrass; assay type: in vivo, Cynodon dactylon; conditions: Preemergence, 0 to 100 scale
Summary of the method: as §1

common pursiane = test: Test D common purslane; assay type: in vivo, Portulaca oleracea; conditions: Preemergence, 0 to 100 scale
Summary of the method: as §1

common ragweed = test: Test D common ragweed; assay type: in vivo, Ambrosia elatior; conditions: Preemergence, 0 to 100 scale
Summary of the method: as §1

common groundsel = test: Test D common groundsel; assay type: in vivo, Senecio vulgaris; conditions: Preemergence, 0 to 100 scale
Summary of the method: as §1

goosegrass = test: Test D goosegrass; assay type: in vivo, Eleusine indica; conditions: Preemergence, 0 to 100 scale
Summary of the method: as §1

guineagrass = test: Test D guineagrass; assay type: in vivo, Panicum maximum; conditions: Preemergence, 0 to 100 scale
Summary of the method: as §1

Johnson grass = test: Test D Johnson grass; assay type: in vivo, Sorghum halepense; conditions: Preemergence, 0 to 100 scale
Summary of the method: as §1

large crabgrass = test: Test D large crabgrass; assay type: in vivo, Digitaria sanguinalis; conditions: Preemergence, 0 to 100 scale
Summary of the method: as §1

pitted morningglory = test: Test D pitted morningglory; assay type: in vivo, Ipomoea lacunosa; conditions: Preemergence, 0 to 100 scale
Summary of the method: as §1

purple nutsedge = test: Test D purple nutsedge; assay type: in vivo, Cyperus rotundus; conditions: Preemergence, 0 to 100 scale
Summary of the method: as §1

sandbur = test: Test D sandbur; assay type: in vivo, Cenchrus echinatus; conditions: Preemergence, 0 to 100 scale
Summary of the method: as §1

Spanishneedles = test: Test D Spanishneedles; assay type: in vivo, Bidens bipinnata; conditions: Preemergence, 0 to 100 scale, 0 no injury, 100 complete control
Summary of the method: as §1

surinam grass = test: Test D surinam grass; assay type: in vivo, Brachiaria decumbens; conditions: Preemergence, 0 to 100 scale
Summary of the method: as §1

tall mallow = test: Test D tall mallow; assay type: in vivo, Malva sylvestris; conditions: Preemergence, 0 to 100 scale
Summary of the method: as §1

[1] = Rate 16 g/ha, 0 no injury, 100 complete control
[2] = Rate 32 g/ha, 0 no injury, 100 complete control
[3] = Rate 64 g/ha, 0 no injury, 100 complete control
[4] = Rate 125 g/ha, 0 no injury, 100 complete control

SMILES: CCCn1c(=O)on(C(=O)N(c2ccc(Cl)cc2)C(C)C)c1=O [Compound 119]
- Plant response rating, Alexandergrass (Alexandergrass; [1]): 0
- Plant response rating, Alexandergrass (Alexandergrass; [2]): 50
- Plant response rating, Alexandergrass (Alexandergrass; [3]): 75
- Plant response rating, Alexandergrass (Alexandergrass; [4]): 98
- Plant response rating, Alexandergrass (Alexandergrass; Rate 250 g/ha): 100
- Plant response rating, Bermudagrass (bermuda-grass; [1]): 50
- Plant response rating, Bermudagrass (bermuda-grass; [2]): 65
- Plant response rating, Bermudagrass (bermuda-grass; [3]): 100
- Plant response rating, Bermudagrass (bermuda-grass; [4]): 100
- Plant response rating, Bermudagrass (bermuda-grass; Rate 250 g/ha): 100
- Plant response rating, C. purslane (common pursiane; [1]): 0
- Plant response rating, C. purslane (common pursiane; [2]): 0
- Plant response rating, C. purslane (common pursiane; [3]): 0
- Plant response rating, C. purslane (common pursiane; [4]): 0
- Plant response rating, C. purslane (common pursiane; Rate 250 g/ha): 0
- Plant response rating, C. ragweed (common ragweed; [1]): 0
- Plant response rating, C. ragweed (common ragweed; [2]): 0
- Plant response rating, C. ragweed (common ragweed; [3]): 0
- Plant response rating, C. ragweed (common ragweed; [4]): 0
- Plant response rating, C. ragweed (common ragweed; Rate 250 g/ha): 0
- Plant response rating, Com. groundsel (common groundsel; [1]): 85
- Plant response rating, Com. groundsel (common groundsel; [2]): 98
- Plant response rating, Com. groundsel (common groundsel; [3]): 100
- Plant response rating, Com. groundsel (common groundsel; [4]): 100
- Plant response rating, Com. groundsel (common groundsel; Rate 250 g/ha): 100
- Plant response rating, Goosegrass (goosegrass; [1]): 30
- Plant response rating, Goosegrass (goosegrass; [2]): 85
- Plant response rating, Goosegrass (goosegrass; [3]): 98
- Plant response rating, Goosegrass (goosegrass; [4]): 100
- Plant response rating, Goosegrass (goosegrass; Rate 250 g/ha): 100
- Plant response rating, Guineagrass (guineagrass; [1]): 65
- Plant response rating, Guineagrass (guineagrass; [2]): 75
- Plant response rating, Guineagrass (guineagrass; [3]): 85
- Plant response rating, Guineagrass (guineagrass; [4]): 98
- Plant response rating, Guineagrass (guineagrass; Rate 250 g/ha): 98
- Plant response rating, Johnsongrass (Johnson grass; [1]): 0
- Plant response rating, Johnsongrass (Johnson grass; [2]): 0
- Plant response rating, Johnsongrass (Johnson grass; [3]): 65
- Plant response rating, Johnsongrass (Johnson grass; [4]): 75
- Plant response rating, Johnsongrass (Johnson grass; Rate 250 g/ha): 85
- Plant response rating, Large crabgrass (large crabgrass; [1]): 85
- Plant response rating, Large crabgrass (large crabgrass; [2]): 90
- Plant response rating, Large crabgrass (large crabgrass; [3]): 98
- Plant response rating, Large crabgrass (large crabgrass; [4]): 100
- Plant response rating, Large crabgrass (large crabgrass; Rate 250 g/ha): 100
- Plant response rating, P. morninglory (pitted morningglory; [1]): 0
- Plant response rating, P. morninglory (pitted morningglory; [2]): 0
- Plant response rating, P. morninglory (pitted morningglory; [3]): 0
- Plant response rating, P. morninglory (pitted morningglory; [4]): 0
- Plant response rating, P. morninglory (pitted morningglory; Rate 250 g/ha): 0
- Plant response rating, Purple nutsedge (purple nutsedge; [1]): 0
- Plant response rating, Purple nutsedge (purple nutsedge; [2]): 0
- Purple nutsedge plant response rating (purple nutsedge; [3]): 0
- Purple nutsedge plant response rating (purple nutsedge; [4]): 0
- Plant response rating, Purple nutsedge (purple nutsedge; Rate 250 g/ha): 0
- Plant response rating, Sandbur (sandbur; [1]): 0
- Plant response rating, Sandbur (sandbur; [2]): 0
- Sandbur plant response rating (sandbur; [3]): 65
- Sandbur plant response rating (sandbur; [4]): 98
- Plant response rating, Sandbur (sandbur; Rate 250 g/ha): 100
- Plant response rating, Spanishneedles (Spanishneedles; Rate 16 g/ha): 0
- Plant response rating, Spanishneedles (Spanishneedles; Rate 32 g/ha): 0
- Spanishneedles plant response rating (Spanishneedles; Rate 64 g/ha): 0
- Spanishneedles plant response rating (Spanishneedles; Rate 125 g/ha): 10
- Plant response rating, Surinam grass (surinam grass; [1]): 0
- Plant response rating, Surinam grass (surinam grass; [2]): 0
- Surinam grass plant response rating (surinam grass; [3]): 50
- Surinam grass plant response rating (surinam grass; [4]): 85
- Plant response rating, Surinam grass (surinam grass; Rate 250 g/ha): 98
- Plant response rating, Tall Mallow (tall mallow; [1]): 0
- Plant response rating, Tall Mallow (tall mallow; [2]): 0
- Tall Mallow plant response rating (tall mallow; [3]): 0
- Tall Mallow plant response rating (tall mallow; [4]): 0
- Plant response rating, Tall Mallow (tall mallow; Rate 250 g/ha): 0
